In patent US5034419A, “N-cycloalkylalkylamines, process for their preparation, their use as medicament and their synthesis intermediates” (L'Oreal, priority 1988, dated 1991):
Where two headings read alike, the source gives them in different places.

Experiments:
[1] = biological target: T1, delta receptors (Cavia porcellus, UniProt A0A286XTF2); test: in vitro affinity for delta receptors; format: binding; settings: Table 3; read-out: delta rec. IC50
T1 construct: from tissue
Protocol: (§1) The "in vitro" study of the affinity of the compounds according to the invention for the three opium receptors is carried out in accordance with the technique described by F. Roman and coll. in J. Pharm. Pharmacol. 1987, 39, p. 404-407 and the study of the affinity for PCP receptors is carried out in accordance with the technique described by Vignon J. and coll. in "Brain Res." 1983; 280, p. 194-7 and 1986; 378, p. 133-41.
(§2) The results shown in table 3 are, for each receptor studied, expressed in IC50, which are the nanomolar concentrations of the dissolved products which are capable of inhibiting 50% of the bonds between the specific radioactive ligand to the receptor under consideration.

[2] = biological target: T2, kappa receptors (Cavia porcellus, UniProt P41144); test: in vitro affinity for kappa receptors; format: binding
T2 construct: from tissue
Protocol: as §1, §2

[3] = system: animals; settings: in vivo; cited from earlier work
[4] = biological target: T3, sigma receptors (Cavia porcellus, UniProt Q60492); test: in vitro affinity for sigma receptors, competition with (+)[3H]SKF10,047; format: binding, guinea-pig (cerebral membranes)
T3 construct: sigma receptors of the cerebral membranes of the guinea-pig used in this study; from tissue; host or cells: guinea-pig cerebral membranes
Protocol: The test is carried out by incubating solutions of suitable concentrations of the products with standard samples of membranes and determining, after filtration, the residual radioactivity of the solution.

[5] = inhibition of gastro-duodenal ulcers caused by cysteamine; format: in vivo, Wistar female rats; settings: Rattus norvegicus; cysteamine hydrochloride 400 mg/kg s.c.; products orally or subcutaneously; read-out: ED50 - ulceration scores
Protocol: This activity is set in relation to the capacity of the products to cause an increase in the alkaline secretion in the duodenum in anaesthetized animals.
In this test, groups of 6 Wistar female rats with an average weight of 200 g receive a subcutaneous injection of cysteamine hydrochloride in an amount of 400 mg/kg. The products under investigation are administered orally or subcutaneously 1 h or, respectively, 30 minutes before the ulcerogenic agent.
Ten hours thereafter, the rats are sacrificed by elongation and their stomach and duodenum are removed, rinsed with physiological solution and mounted on a card. The presence of ulcers in the antro-pyloric-duodenal zone is examined and their area, expressed in mm^2, is evaluated by multiplying the two main perpendicular axis of the lesion. Statistical analysis of the results is performed with the aid of the Student test for the ulcerated areas in comparison with a control group receiving only excipient.
The results presented in table 5 are expressed in ED50 of ulceration scores, which are the effective doses, expressed in mg/kg product, which cause inhibition of 50% of the ulcerations caused by cysteamine.

[6] = biological target: mu receptors; test: in vitro affinity for mu receptors; format: binding; settings: for IC50: Table 3, read-out: mu rec. IC50
Protocol: as §1, §2

[7] = alkaline duodenal secretion in anaesthetized rats; format: in vivo, male rats; settings: 1 mg/kg intravenously; for Increase AUC 1 2 h: AUC of alkaline flow rate 1 h to 2 h compared with control animals; for Increase in secretion: maximum increase, anaesthetized rats
Protocol: The activity of the products on alkaline duodenal secretion in rats is studied in accordance with a technique described by FLEMSTROM and coll. Gastroenterology, 1983, 84, p. 787-794.
The test comprises determination every 10 minutes, for 3 hours and in situ, of the alkaline secretion of a duodenal segment 12 mm in length, with no Brunner glands and situated 2 cm from the pylorus.
The study is performed on male rats of about 350 g previously anaesthetized, in which the duodenal segment chosen in cannulated by 2 glass tubes in accordance with the technique described by the author, and in which a luminal perfusate consisting of 5 ml isotonic NaCl solution is maintained at 37° C.
The variations in the intraluminal alkaline secretion are measured by pHmetry every 10 minutes by means of an automated system maintaining a constant pH of 7.4 by in situ addition of a 0.04N solution of hydrochloric acid. Fifty minutes after the start of the experiment, the products under investigation are administered intravenously or intraarterially in an amount of 1 mg/kg and the volume of hydrochloric acid introduced, which is a reflection of the in situ increase in alkaline secretion, is measured every 10 minutes for 3 hours with respect to the start of the experiment, that is to say for 130 minutes after injection of the product under investigation.
The following are determined for each product:
a) The maximum increase in secretion in micro-eq/cm/h under the action of the drug, taking into account the basal secretion of the same animals observed for 50 minutes before administration of the product.
The results are shown in table 6, which follows, for the products (I) according to the invention administered intravenously in an amount of 1 mg/kg.

[8] = antagonism of amnesia caused by scopolamine, passive avoidance test; format: in vivo, mice; settings: for % antagonism of the amnesia: 0.25 mg/kg orally, scopolamine 1 mg/kg i.p. 30 minutes later, latency after 24 hours; for antagonism of amnesia caused by scopolamine (in words): mouse, in vivo
Protocol: The animal is introduced into the illuminated compartment, and when it moves to the dark compartment it receives an electric current (0.35 mA) through the base until it returns to the illuminated compartment, from where it is then removed.
After 24 hours, the operation is repeated. The mouse is replaced in the apparatus and it avoids entering into the dark compartment. The time which elapses before passage into this compartment is recorded; under the conditions of the experiment, the efficacy of the compounds under investigation in antagonizing the amnesic effect of scopolamine, which is administered intraperitoneally in an amount of 1 mg/kg 30 minutes before the animal is first introduced into the apparatus, can be evaluated.
In control mice which have received only scopolamine, the time elapsed before passage after 24 hours is remarkably lower than that observed in the untreated animals.
The study of the products according to the invention by this method is performed on groups of 18 mice and the products are administered orally on the first day in an amount of 0.25 mg/kg 30 minutes before administration of scopolamine i.p.

[9] = biological target: PCP receptors; test: in vitro affinity for phencyclidine (PCP) receptors; format: binding; settings: Table 3; read-out: PCP rec. IC50
Protocol: as §1, §2

[10] = protection from convulsions induced by picrotoxin in mice; format: in vivo, "Swiss" male mice; settings: 50 mg/kg i.p.; picrotoxin 24 mg/kg i.p. 30 minutes later; * p<0.05, ** p<0.01, *** p<0.001
Protocol: b) The psychotropic properties of the compounds were determined by the protection from convulsions induced by picrotoxin in mice, which was realized in accordance with a method derived from that of Krall and coll., "Epilepsia", 1978, 19, p. 409-428.
The administration of picrotoxin to animals causes a convulsive attack characterized by a myoclonic extension syndrome followed by extension of the limbs leading to death of the animals. Certain substances, in particular those which act on the GABA/benzodiazepine/Cl-ionophor complex, provide protection of the animals from these convulsive attacks.
In practice, the study is carried out on groups of 10 "Swiss" male mice weighing about 20 g, to which the product under investigation is administered in aqueous solution either intraperitoneally (i.p.) or orally (p.o.).
An intraperitoneal injection of a solution of picrotoxin in an amount of 24 mg/kg in a volume of 0.2 ml per animal is then performed, either 30 minutes after intraperitoneal administration of the product or 60 minutes after oral administration of the product, the dose of the product injected in this way causing a clonic attack which leads to death of the untreated animals. Under the conditions of the test, suppression of the tonic extension phase is found in the animals treated.
The results are expressed:
either as the percentage of animals protected from this phase under the action of 50 mg/kg compound under investigation administered i.p. or 100 mg/kg p.o.,
or in the ED50 for each of these groups, which is the effective dose of the compound under investigation expressed in mg/kg which protects 50% of animals from this extension phase, the significance value of the results generally being indicated in the following manner: […]

[11] = Table 2, (+)[3H]SKF10,047, guinea-pig cerebral membranes, read-out: IC50 (bonding affinity to sigma receptors)
[12] = Table 3, read-out: kappa rec. IC50

T2 sequence (P41144 whole entry): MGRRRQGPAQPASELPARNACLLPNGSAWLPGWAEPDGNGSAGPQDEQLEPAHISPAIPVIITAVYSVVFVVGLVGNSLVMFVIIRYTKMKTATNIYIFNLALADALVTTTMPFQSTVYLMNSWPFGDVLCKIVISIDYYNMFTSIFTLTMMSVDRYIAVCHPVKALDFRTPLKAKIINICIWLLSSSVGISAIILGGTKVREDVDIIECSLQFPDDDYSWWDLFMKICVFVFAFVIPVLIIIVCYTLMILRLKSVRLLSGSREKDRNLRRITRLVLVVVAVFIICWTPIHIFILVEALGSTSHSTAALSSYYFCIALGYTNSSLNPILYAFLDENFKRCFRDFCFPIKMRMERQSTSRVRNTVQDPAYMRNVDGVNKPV
T1 sequence (A0A286XTF2 1-366): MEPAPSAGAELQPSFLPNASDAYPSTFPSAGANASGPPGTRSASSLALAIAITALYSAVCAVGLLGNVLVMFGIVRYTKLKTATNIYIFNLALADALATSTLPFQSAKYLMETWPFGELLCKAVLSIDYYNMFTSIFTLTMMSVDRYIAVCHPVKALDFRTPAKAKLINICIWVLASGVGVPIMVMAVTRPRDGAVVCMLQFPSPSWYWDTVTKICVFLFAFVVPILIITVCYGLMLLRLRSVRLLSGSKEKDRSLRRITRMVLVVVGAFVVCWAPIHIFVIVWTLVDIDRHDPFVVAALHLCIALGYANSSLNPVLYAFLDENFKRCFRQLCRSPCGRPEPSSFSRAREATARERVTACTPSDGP
T3 sequence (Q60492 whole entry): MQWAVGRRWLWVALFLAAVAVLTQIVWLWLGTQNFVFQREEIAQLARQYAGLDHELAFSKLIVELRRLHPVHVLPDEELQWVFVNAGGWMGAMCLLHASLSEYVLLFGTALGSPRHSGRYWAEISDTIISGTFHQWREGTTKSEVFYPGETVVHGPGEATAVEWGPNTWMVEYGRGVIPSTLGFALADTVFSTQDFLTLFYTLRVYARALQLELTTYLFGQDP

Compound	IC50 [1] [µM]	IC50 ([2]; kappa rec. IC50, Table 3) [µM]	toxicity on animals (in words) [3]	IC50 [4, 11] [µM]	ED50 [5] [mg/kg]	IC50 [2, 12] [µM]	IC50 [6] [µM]	mu rec. relative value of the IC50 ([6]; relative to IC50 of sigma affinity = 1)	Increase AUC 1 2 h [7]	Increase in secretion [7] [micro-eq/cm/h]	% antagonism of the amnesia [8] [%]	IC50 [9] [µM]	IC50 ([4]; IC50 (bonding affinity to sigma receptors), Table 2, (+)[3H]SKF10,047, guinea-pig cerebral membranes) [µM]	IC50 ([4]; sigma rec. IC50, Table 3) [µM]	antagonism of amnesia caused by scopolamine (in words) [8]	i.p.: % prot. (inhibition of convulsions induced by picrotoxin) [10] [%]
Cc1ccccc1NC(=N)Nc1ccccc1C [DTG, ditolylguanidine, reference compound]	33.2	6.49	excessive toxicity	–	–	–	–	–	–	–	–	–	–	–	–	–
CCC(CC=Cc1ccccc1)(c1ccccc1)N(C)CC1CCCCC1 (stereo not drawn) [Example 7, α-Cinnamyl-N-cyclohexylmethyl-α-ethyl-N-methyl-benzylamine]	51.8	–	–	0.032	10.5	72.8	> 100	> 1000	52.8	6.0	56	50.8	–	–	–	–
CCC(CC=Cc1ccccc1)(c1ccccc1)N(C)CC1CC1 (stereo not drawn) [Example 9, α-Cinnamyl-N-cyclopropylmethyl-α-ethyl-N-methyl-benzylamine]	83.8	–	–	–	26.2	6.2	15.8	–	97.6	10.0	76	3.67	0.024	0.024	conclusive of an activity of the products according to the invention at a low dose	90
CCC(CC=Cc1ccccc1)(c1ccccc1)N(C)CC1CCC1 (stereo not drawn) [Example 12, α-Cinnamyl-N-cyclobutylmethyl-α-ethyl-N-methyl-benzylamine]	85.6	–	–	0.05	12.2	6.28	7.18	–	41.6	7.0	98	–	–	–	conclusive of an activity of the products according to the invention at a low dose	–
CCC(CC=Cc1ccccc1)(c1cccs1)N(C)CC1CC1 (stereo not drawn) [Example 21, α-Cinnamyl-N-cyclopropylmethyl-α-ethyl-N-methyl-2-thiophenemethylamine]	7.39	–	–	0.095	48.2	1.2	1.54	–	–	–	–	6.28	–	–	–	50
